Data published in the NIST ThermoML archive (doi:10.1021/je9000922).
± gives the expanded uncertainty stated by the source.

Conditions: 355.65 K; Liquid

Structure (SMILES): CC(C)O [propan-2-ol]
- vapor or sublimation pressure: 101.32 ± 3 kPa
